For one data set, the target named is T1, Aurora2 kinase (Homo sapiens, UniProt O14965).
T1 construct: A complete recombinant Aurora2 enzyme; His tag (N); made in house; host or cells: E. coli
T1 sequence (O14965 1-403): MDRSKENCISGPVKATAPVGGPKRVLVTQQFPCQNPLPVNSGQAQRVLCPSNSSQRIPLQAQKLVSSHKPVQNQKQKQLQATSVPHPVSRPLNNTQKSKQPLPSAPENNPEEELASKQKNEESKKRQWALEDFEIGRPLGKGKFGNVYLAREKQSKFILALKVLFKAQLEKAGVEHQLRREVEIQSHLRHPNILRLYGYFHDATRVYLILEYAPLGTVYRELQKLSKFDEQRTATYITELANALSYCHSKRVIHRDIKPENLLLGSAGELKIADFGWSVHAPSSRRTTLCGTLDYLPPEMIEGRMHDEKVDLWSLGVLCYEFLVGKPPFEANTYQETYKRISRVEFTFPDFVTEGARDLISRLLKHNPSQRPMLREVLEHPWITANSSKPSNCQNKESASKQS
Description: Aurora2 kinase radioactivity scintillation assay using nickel chelate (NuMA substrate). It counts as biochemical. To be noted: 10 μM; for inhibition at 10 µM: read-out: Aurora2 % inhib at 10 μM. In a few lines: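 Read-out is 33P incorporation into His-NuMA (Q1687-H2101, 0.5 μM) captured on nickel chelate, after 30 min at 37 °C with 0.02 μM His-Aurora2 and 1 μM ATP. Expressed as percentage inhibition of uncompounded control activity, background subtracted.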

Another data set deals with c-Src protein. Description: Src kinase phosphorylation of biotinylated cdc2 substrate, fluorescence (DELFIA). The data set is classed as biochemical, human. The method, then: The inhibition of the Src kinase is evaluated by measuring the phosphorylation of the biotinylated cdc2 substrate (Pierce) detected by fluorescence (DELFIA) using an antiphosphotyrosine antibody labeled with Europium, in 96-well Wallac plates. The c-Src protein used is a recombinant human protein produced in Baculovirus, comprising the SH3 and SH2 and the catalytic domains. The enzyme, the substrate and the various concentrations of test compounds are placed in the well in a 50 mM Tris buffer containing 10 mM MgCl2. The reaction is initiated by adding 10 μM of ATP. After incubation for 60 minutes at 30° C., the reaction is stopped by adding 75 mM EDTA. 50 μl are taken from each well and transferred into a plate coated with streptavidin. After incubation for 30 minutes at 25° C., the wells are washed with a washing buffer (Wallac) and then the antiphosphotyrosine antibody (PY20-Europium [Perkin Elmer]) is added in a volume of 75 μl. The plate is incubated for 30 minutes at 25° C. and then an “Enhancer” solution (Wallac) is added before reading the fluorescence using a fluorimeter (Perkin Elmer). The background noise is evaluated in triplicate in wells containing the substrate and the antibody in the absence of enzyme. The activity of the enzyme is measured (in triplicate) in the wells containing all the reagents in the absence of compound. The inhibition of the Src activity is expressed as percentage inhibition of the activity of the control determined in the absence of compound. The compound PP2 (Calbiochem) is included at various concentrations in each experiment as an inhibition control.

As usually defined, the melting point is the temperature, or range, at which the solid turns liquid.

`COc1cccc(S(=O)(=O)Nc2ccc3[nH]nc(-c4ccccc4)c3c2)c1` [Example 156, 3-Methoxy-N-(3-phenyl-1H-indazol-5-yl)-benzenesulfonamide]: the inhibition at 10 µM on Aurora2 kinase came out at 99%. Besides, in the data set with c-Src protein, the “SRC % inhib at 10 μM” value turned out to be 57%.
For the compound `CNc1n[nH]c2ccc(NS(=O)(=O)c3ccccc3S(C)(=O)=O)cc12` [Example 37, N-(3-Methylamino-1H-indazol-5-yl)-2-methylsulfonylbenzenesulfonamide], the melting point was found to be 220 °C. Moreover, the inhibition at 10 µM on Aurora2 kinase was 36%.
On the same counts, the results for `CS(=O)(=O)c1ccc(F)cc1S(=O)(=O)Nc1ccc2[nH]nc(-c3ccccc3)c2c1` [Example 93, 5-Fluoro-2-methylsulfonyl-N-(3-phenyl-1H-indazol-5-yl)-benzenesulfonamide] are 224 °C and 89%.
On the same counts, the results for `CS(=O)(=O)c1ccccc1S(=O)(=O)Nc1ccc2[nH]nc(-c3ccc(N)cc3)c2c1` [Example 70, N-[3-(4-Aminophenyl)-1H-indazol-5-yl]-2-methylsulfonylbenzenesulfonamide] are 154 °C and 98%.
The corresponding values for `Nc1n[nH]c2ccc(NS(=O)(=O)c3cccc(F)c3)cc12` [Example 26, N-(3-Amino-1H-indazol-5-yl)-3-fluorobenzenesulfonamide] are 216 °C and 95%.
Compound `CS(=O)(=O)c1ccccc1S(=O)(=O)Nc1ccc2[nH]nc(/C=C/c3ccc(F)cc3)c2c1` [Example 74, N-{3-[(E)-2-(4-Fluorophenyl)vinyl]-1H-indazol-5-yl}-2-methylsulfonylbenzenesulfonamide] registered a melting point of 248 °C. Further, at Aurora2 kinase, the inhibition at 10 µM is 99%.
On the same counts, the results for `CS(=O)(=O)c1ccccc1S(=O)(=O)Nc1ccc2[nH]nc(N)c2c1` [Example 39, N-(3-Amino-1H-indazol-5-yl)-2-methylsulfonylbenzenesulfonamide] are 246 °C and 81%.
The corresponding values for `Nc1n[nH]c2ccc(NS(=O)(=O)c3cc(F)cc(F)c3)cc12` [Example 42, N-(3-Amino-1H-indazol-5-yl)-3,5-difluorobenzenesulfonamide] are 232 °C and 50%.
The corresponding values for `COC(=O)/C=C/c1n[nH]c2ccc(NS(=O)(=O)c3ccccc3S(C)(=O)=O)cc12` [Example 79, Methyl (E)-3-[5(2-methylsulfonylbenzenesulfonylamino)-1H-indazol-3-yl]-acrylate] are 253 °C and 95%.
The compound `CS(=O)(=O)c1ccccc1S(=O)(=O)Nc1ccc2[nH]nc(-c3cccc(C#N)c3)c2c1` [Example 71, N-[3-(3-Cyanophenyl)-1H-indazol-5-yl]-2-methylsulfonylbenzenesulfonamide] displayed a melting point of 240 °C. The inhibition at 10 µM on Aurora2 kinase is 93%.
The corresponding values for `CS(=O)(=O)c1ccccc1S(=O)(=O)Nc1ccc2[nH]nc(C#Cc3ccccc3)c2c1` [Example 89, 2-Methylsulfonyl-N-(3-phenylethynyl-1H-indazol-5-yl)-benzenesulfonamide] are 198 °C and 92%.
On the same counts, the results for `COC(=O)c1cccc(-c2n[nH]c3ccc(NS(=O)(=O)c4ccccc4S(C)(=O)=O)cc23)c1` [Example 55, Methyl 3-[5-(2-methylsulfonylbenzenesulfonamino)-1H-indazol-3-yl]benzoate] are 202 °C and 94%.
Consider `Cc1cc2[nH]nc(-c3ccccc3)c2cc1NS(=O)(=O)c1ccccc1S(C)(=O)=O` [Example 92, 2-Methylsulfonyl-N-(6-methyl-3-phenyl-1H-indazol-5-yl)-benzenesulfonamide], for which the melting point was 239 °C. On Aurora2 kinase, the inhibition at 10 µM was 70%.
The corresponding values for `Nc1n[nH]c2ccc(NS(=O)(=O)c3c(F)cccc3F)cc12` [Example 40, N-(3-Amino-1H-indazol-5-yl)-2,6-difluorobenzenesulfonamide] are 241 °C and 70%.
The corresponding values for `O=S(=O)(Nc1ccc2[nH]nc(-c3cc4ccccc4[nH]3)c2c1)c1ccccc1OC(F)(F)F` [Example 84, N-[3-(1H-Indol-2-yl)-1H-indazol-5-yl]-2-trifluoromethoxybenzenesulfonamide] are 172 to 174 °C and 100%.
The corresponding values for `CS(=O)(=O)c1ccccc1S(=O)(=O)Nc1ccc2[nH]nc(Sc3ccccc3)c2c1` [Example 88, 2-Methylsulfonyl-N-(3-phenylsulfanyl-1H-indazol-5-yl)-benzenesulfonamide] are 195 °C and 55%.
Regarding `COc1ccc(-c2n[nH]c3ccc(NS(=O)(=O)c4ccccc4S(C)(=O)=O)cc23)cc1` [Example 32, N-[3-(4-Methoxyphenyl)-1H-indazol-5-yl]-2-methylsulfonylbenzenesulfonamide], the melting point came to 244 °C. Moreover, the inhibition at 10 µM at Aurora2 kinase stood at 92%.
In the case of `Nc1n[nH]c2ccc(NS(=O)(=O)c3c(Cl)cccc3Cl)cc12` [Example 41, N-(3-Amino-1H-indazol-5-yl)-2,6-dichlorobenzenesulfonamide], the melting point was determined as 250 °C. In addition, at Aurora2 kinase, the inhibition at 10 µM came out at 90%.
With `CS(=O)(=O)c1ccccc1S(=O)(=O)Nc1ccc2[nH]nc(-c3ccco3)c2c1` [Example 53, N-(3-Furan-2-yl-1H-indazol-5-yl)-2-methylsulfonylbenzenesulfonamide], the melting point is 248 °C. For the same compound, the inhibition at 10 µM on Aurora2 kinase worked out at 91%.
The corresponding values for `CS(=O)(=O)c1ccccc1S(=O)(=O)Nc1ccc2[nH]nc(/C=C/c3ccc(Cl)cc3)c2c1` [Example 76, N-{3-[(E)-2-(4-Chlorophenyl)vinyl]-1H-indazol-5-yl}-2-methylsulfonylbenzenesulfonamide] are 247 °C and 99%.
On the same counts, the results for `CS(=O)(=O)c1ccccc1S(=O)(=O)Nc1ccc2[nH]nc(-c3ccncc3)c2c1` [Example 54, 2-Methylsulfonyl-N-(3-pyridin-4-yl-1H-indazol-5-yl)benzenesulfonamide] are 265 °C and 100%.
The corresponding values for `CS(=O)(=O)c1ccccc1S(=O)(=O)Nc1ccc2[nH]nc(-c3ccoc3)c2c1` [Example 52, N-(3-Furan-3-yl-1H-indazol-5-yl)-2-methylsulfonylbenzenesulfonamide] are 249 °C and 84%.
In turn, `CC(=O)Nc1ccc(S(=O)(=O)Nc2ccc3[nH]nc(-c4ccccc4)c3c2)cc1` [Example 95, N-[4-(3-Phenyl-1H-indazol-5-ylsulfamoyl)phenyl]acetamide] had a melting point of 167 °C. Besides, the “Aurora2 % inhib at 10 μM” value at Aurora2 kinase is 30%.
`Nc1ccc(S(=O)(=O)Nc2ccc3[nH]nc(-c4ccccc4)c3c2)cc1` [Example 94, 4-Amino-N-(3-phenyl-1H-indazol-5-yl)benzenesulfonamide] came in with a melting point of 249 °C. The inhibition at 10 µM at Aurora2 kinase came out at 65%.
On the same counts, the results for `O=S(=O)(Nc1ccc2[nH]nc(-c3ccccc3)c2c1)C1CCNCC1` [Example 100, N-(3-Phenyl-1H-indazol-5-yl)-piperidine-4-sulfonamide] are 230 °C and 44%.
The corresponding values for `CS(=O)(=O)c1ccccc1S(=O)(=O)Nc1ccc2[nH]nc(NCc3ccccc3)c2c1` [Example 36, N-(3-Benzylamino-1H-indazol-5-yl)-2-methylsulfonylbenzenesulfonamide] are 226 °C and 80%.
The corresponding values for `CS(=O)(=O)c1ccccc1S(=O)(=O)Nc1ccc2[nH]nc(-c3ccc(F)cc3)c2c1` [Example 33, N-[3-(4-Fluorophenyl)-1H-indazol-5-yl]-2-methylsulfonylbenzenesulfonamide] are 209 °C and 89%.

The values above are taken from patent US6858638B2, “Substituted indazoles, compositions containing them, method of production and use” (Aventis Pharma S.A., priority 2002, dated 2005).
